Laboratory results published in PubChem BioAssay AID248 (DTP/NCI, 2004).
Several values for one entry are separate records, joined by “and”; a condition that tells them apart may be missing. Equal entries are not always repeated. Toxic doses and inconclusive results are not listed.

System: L1210 leukemia ip in BDF1 mice, survival T/C
Experiment: NCI In Vivo Anticancer Drug Screen. Data for tumor model L1210 Leukemia (intraperitoneal) in B6D2F1 (BDF1) mice
Settings: endpoint: mean survival time, higher = longer survival
How it was run: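 Ratio derived from survival: compound-dosed mice over vehicle-dosed mice, all bearing a transplantable tumor.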

[1] = dose: 200.0 mg/kg/injection, schedule: Q01DX001 (ip), vehicle: saline
[2] = dose: 75.0 mg/kg/injection, schedule: Q01DX001 (ip), vehicle: saline
[3] = dose: 200.0 mg/kg/injection, schedule: Q01DX001 (ip), vehicle: carboxymethylcellulose (CMC)
[4] = dose: 100.0 mg/kg/injection, schedule: Q01DX009 (ip), vehicle: Klucel (hydroxypropylcellulose) (HPC)
[5] = dose: 100.0 mg/kg/injection, schedule: Q04DX003 (ip), vehicle: Klucel (hydroxypropylcellulose) (HPC)
[6] = dose: 200.0 mg/kg/injection, schedule: Q01DX009 (ip), vehicle: Klucel (hydroxypropylcellulose) (HPC)
[7] = dose: 200.0 mg/kg/injection, schedule: Q04DX003 (ip), vehicle: Klucel (hydroxypropylcellulose) (HPC)
[8] = dose: 400.0 mg/kg/injection, schedule: Q04DX003 (ip), vehicle: Klucel (hydroxypropylcellulose) (HPC)
[9] = dose: 100.0 mg/kg/injection, schedule: Q01DX009 (ip), vehicle: saline with Tween-80
[10] = dose: 100.0 mg/kg/injection, schedule: Q04DX003 (ip), vehicle: saline with Tween-80
[11] = dose: 200.0 mg/kg/injection, schedule: Q04DX003 (ip), vehicle: saline with Tween-80
[12] = dose: 400.0 mg/kg/injection, schedule: Q04DX003 (ip), vehicle: saline with Tween-80
[13] = dose: 400.0 mg/kg/injection, schedule: Q01DX009 (ip), vehicle: Klucel (hydroxypropylcellulose) (HPC)
[14] = dose: 50.0 mg/kg/injection, schedule: Q01DX009 (ip), vehicle: saline
[15] = dose: 100.0 mg/kg/injection, schedule: Q01DX009 (ip), vehicle: saline
[16] = dose: 100.0 mg/kg/injection, schedule: Q04DX003 (ip), vehicle: saline
[17] = dose: 200.0 mg/kg/injection, schedule: Q01DX009 (ip), vehicle: saline
[18] = dose: 200.0 mg/kg/injection, schedule: Q04DX003 (ip), vehicle: saline
[19] = dose: 100.0 mg/kg/injection, schedule: Q01DX001 (ip), vehicle: carboxymethylcellulose (CMC)
[20] = dose: 400.0 mg/kg/injection, schedule: Q01DX001 (ip), vehicle: carboxymethylcellulose (CMC)

## O=C(O)C1OC(n2cc(F)c(=O)[nH]c2=O)CC1O (stereo unspecified)
dose: 50.0 mg/kg/injection, schedule: Q01DX001 (ip), vehicle: saline
  T/C: 101 % of control
dose: 100.0 mg/kg/injection, schedule: Q01DX001 (ip), vehicle: saline
  T/C: 101 % of control
[1]
  T/C: 98 % of control
dose: 400.0 mg/kg/injection, schedule: Q01DX001 (ip), vehicle: saline
  T/C: 110 % of control

## O=C(CCl)NC1=C(Cl)C(=O)c2ccccc2C1=O
[2]
  T/C: 93 % of control

## Cc1ccc(S(=O)(=O)CC(O)(/C=C/c2ccccc2)c2ccccc2)cc1 (stereo unspecified)
dose: 100.0 mg/kg/injection, schedule: Q01DX001 (ip), vehicle: acetone
  T/C: 98 % of control
dose: 200.0 mg/kg/injection, schedule: Q01DX001 (ip), vehicle: acetone
  T/C: 93 % of control
dose: 400.0 mg/kg/injection, schedule: Q01DX001 (ip), vehicle: acetone
  T/C: 89 % of control

## CCOC(C)c1ccccc1 (stereo unspecified)
[3]
  T/C: 95 % of control

## O=C(O)c1ccccc1C(=O)OC1CC2C=CC1C21CC1 (stereo unspecified)
dose: 50.0 mg/kg/injection, schedule: Q01DX009 (ip), vehicle: Klucel (hydroxypropylcellulose) (HPC)
  T/C: 98 % of control
[4]
  T/C: 96 % of control and 95 % of control
[5]
  T/C: 95 % of control
[6]
  T/C: 100 % of control and 113 % of control
[7]
  T/C: 104 % of control and 106 % of control
[8]
  T/C: 101 % of control

## Nc1[nH]c(=S)[nH]c(=S)c1N
dose: 125.0 mg/kg/injection, schedule: Q01DX Z (ip), vehicle: methylcellulose (MC)
  T/C: 101 % of control

## O=C(Nc1ccccc1[N+](=O)[O-])Oc1ccc(-c2ccccc2)cc1
[9]
  T/C: 93 % of control and 105 % of control
dose: 100.0 mg/kg/injection, schedule: Q04DX002 (ip), vehicle: saline with Tween-80
  T/C: 103 % of control and 117 % of control
[10]
  T/C: 98 % of control
dose: 200.0 mg/kg/injection, schedule: Q01DX009 (ip), vehicle: saline with Tween-80
  T/C: 101 % of control and 92 % of control
dose: 200.0 mg/kg/injection, schedule: Q04DX002 (ip), vehicle: saline with Tween-80
  T/C: 107 % of control and 91 % of control
[11]
  T/C: 95 % of control
dose: 400.0 mg/kg/injection, schedule: Q01DX009 (ip), vehicle: saline with Tween-80
  T/C: 101 % of control and 103 % of control
dose: 400.0 mg/kg/injection, schedule: Q04DX002 (ip), vehicle: saline with Tween-80
  T/C: 101 % of control and 91 % of control
[12]
  T/C: 101 % of control

## COc1ccc(COC(=O)Nc2ccc(Br)cc2)cc1
[4]
  T/C: 101 % of control
[6]
  T/C: 98 % of control
[13]
  T/C: 103 % of control

## CC(=O)N(C)c1cc(N)ccc1OCc1ccccc1
dose: 12.5 mg/kg/injection, schedule: Q04DX003 (ip), vehicle: saline with Tween-80
  T/C: 91 % of control
dose: 25.0 mg/kg/injection, schedule: Q01DX009 (ip), vehicle: saline with Tween-80
  T/C: 100 % of control
dose: 25.0 mg/kg/injection, schedule: Q04DX003 (ip), vehicle: saline with Tween-80
  T/C: 98 % of control and 101 % of control
dose: 50.0 mg/kg/injection, schedule: Q01DX009 (ip), vehicle: saline with Tween-80
  T/C: 96 % of control
dose: 50.0 mg/kg/injection, schedule: Q04DX003 (ip), vehicle: saline with Tween-80
  T/C: 95 % of control and 102 % of control
[9]
  T/C: 102 % of control
[10]
  T/C: 95 % of control and 113 % of control
[11]
  T/C: 97 % of control

## O=C(CCC[n+]1ccccc1)CC(O)(C(F)(F)F)C(F)(F)F
[14]
  T/C: 105 % of control
[15]
  T/C: 103 % of control
[16]
  T/C: 103 % of control
[17]
  T/C: 100 % of control
[18]
  T/C: 106 % of control

## O=C(C1=NNC(c2ccccc2)C1C(=O)c1ccccc1)c1ccccc1 (stereo unspecified)
dose: 100.0 mg/kg/injection, schedule: Q01DX001 (ip), vehicle: steriod suspending solution
  T/C: 93 % of control
dose: 200.0 mg/kg/injection, schedule: Q01DX001 (ip), vehicle: steriod suspending solution
  T/C: 110 % of control
dose: 400.0 mg/kg/injection, schedule: Q01DX001 (ip), vehicle: steriod suspending solution
  T/C: 101 % of control

## CC(C)(C)C(=O)CC(=O)C(C)(C)C.CC(C)(C)C(=O)CC(=O)C(C)(C)C.CC(C)(C)C(=O)CC(=O)C(C)(C)C.[Er]
[10]
  T/C: 100 % of control
[11]
  T/C: 97 % of control
[12]
  T/C: 94 % of control

## NNC(=O)C12CCCCC1CCC2 (stereo unspecified)
dose: 100.0 mg/kg/injection, schedule: Q01DX009 (ip), vehicle: acetone
  T/C: 88 % of control
dose: 100.0 mg/kg/injection, schedule: Q04DX003 (ip), vehicle: acetone
  T/C: 100 % of control
dose: 200.0 mg/kg/injection, schedule: Q04DX003 (ip), vehicle: acetone
  T/C: 100 % of control
dose: 400.0 mg/kg/injection, schedule: Q01DX009 (ip), vehicle: acetone
  T/C: 87 % of control
dose: 400.0 mg/kg/injection, schedule: Q04DX003 (ip), vehicle: acetone
  T/C: 105 % of control

## CCCCC(SC(CC)(C(C)=O)c1ccccc1)C(N)=O (stereo unspecified)
[19]
  T/C: 102 % of control
[3]
  T/C: 113 % of control
[20]
  T/C: 96 % of control

## Cc1cc(C)c(C(=O)/C=C/c2ccccc2)c(C)c1
[4]
  T/C: 91 % of control
[5]
  T/C: 104 % of control
[6]
  T/C: 94 % of control
[7]
  T/C: 101 % of control
[13]
  T/C: 94 % of control
[8]
  T/C: 95 % of control

## CC1=CP(=O)(O)CC1
[14]
  T/C: 113 % of control
[15]
  T/C: 103 % of control
[16]
  T/C: 95 % of control
[17]
  T/C: 98 % of control
[18]
  T/C: 93 % of control

## O=C1c2ccccc2C(C2c3ccccc3C(=O)c3ccccc32)c2ccccc21
dose: 50.0 mg/kg/injection, schedule: Q01DX001 (ip), vehicle: carboxymethylcellulose (CMC)
  T/C: 89 % of control
[19]
  T/C: 89 % of control
[20]
  T/C: 86 % of control

## O=C1NC(=S)S/C1=C\c1ccc(N(CCCl)CCCl)cc1
[10]
  T/C: 96 % of control
[11]
  T/C: 93 % of control
[12]
  T/C: 96 % of control

## S=c1nc[nH]c2c1ncn2C1CCCCO1 (stereo unspecified)
dose: 16.0 mg/kg/injection, schedule: Q01DX Z (ip), vehicle: carboxymethylcellulose (CMC)
  T/C: 120 % of control
dose: 21.0 mg/kg/injection, schedule: Q01DX009 (ip), vehicle: saline
  T/C: 103 % of control
dose: 36.0 mg/kg/injection, schedule: Q01DX009 (ip), vehicle: saline
  T/C: 120 % of control
dose: 88.0 mg/kg/injection, schedule: Q01DX001 (ip), vehicle: saline
  T/C: 112 % of control
[19]
  T/C: 124 % of control
[15]
  T/C: 118 % of control
dose: 120.0 mg/kg/injection, schedule: Q01DX009 (ip), vehicle: saline
  T/C: 107 % of control
dose: 125.0 mg/kg/injection, schedule: Q01DX Z (ip), vehicle: carboxymethylcellulose (CMC)
  T/C: 94 % of control
dose: 133.0 mg/kg/injection, schedule: Q01DX001 (ip), vehicle: saline
  T/C: 122 % of control
dose: 177.0 mg/kg/injection, schedule: Q01DX001 (ip), vehicle: carboxymethylcellulose (CMC)
  T/C: 155 % of control
[1]
  T/C: 155 % of control
dose: 267.0 mg/kg/injection, schedule: Q01DX001 (ip), vehicle: carboxymethylcellulose (CMC)
  T/C: 159 % of control
dose: 600.0 mg/kg/injection, schedule: Q01DX001 (ip), vehicle: carboxymethylcellulose (CMC)
  T/C: 150 % of control and 156 % of control
dose: 900.0 mg/kg/injection, schedule: Q01DX001 (ip), vehicle: carboxymethylcellulose (CMC)
  T/C: 104 % of control
dose: 1350.0 mg/kg/injection, schedule: Q01DX001 (ip), vehicle: carboxymethylcellulose (CMC)
  T/C: 96 % of control

## CCCCC(CCCC)NCC(C)OC(=O)c1ccc(N)cc1 (stereo unspecified)
dose: 9.5 mg/kg/injection, schedule: Q01DX001 (ip), vehicle: other
  T/C: 100 % of control
dose: 19.0 mg/kg/injection, schedule: Q01DX001 (ip), vehicle: other
  T/C: 105 % of control
dose: 38.0 mg/kg/injection, schedule: Q01DX001 (ip), vehicle: other
  T/C: 96 % of control
dose: 75.0 mg/kg/injection, schedule: Q01DX001 (ip), vehicle: other
  T/C: 92 % of control

## CCCC(N)C(O)c1ccccc1 (stereo unspecified)
[2]
  T/C: 102 % of control
dose: 150.0 mg/kg/injection, schedule: Q01DX001 (ip), vehicle: saline
  T/C: 100 % of control

## O=C(CCl)NP(=O)(O)O
dose: 25.0 mg/kg/injection, schedule: Q04DX002 (ip), vehicle: saline
  T/C: 97 % of control
dose: 50.0 mg/kg/injection, schedule: Q04DX002 (ip), vehicle: saline
  T/C: 102 % of control
dose: 100.0 mg/kg/injection, schedule: Q04DX002 (ip), vehicle: saline
  T/C: 102 % of control
